From paper PMC2409716 (British Journal of Cancer, 2004)
Read-outs that look alike come from different tables or passages of the source.

Experiments:
[1] = test system: patients with a solid malignancy; assay: Phase I toxicity evaluation (NCI common toxicity criteria v2.0, DLT/MTD) of irinotecan with oral R115777; format: in vivo, human
Experimental: In the continuous regimen, R115777 was administered on days 3–21 of cycle 1, and then continuously thereafter, starting again on day 1 of subsequent cycles. In the intermittent regimen, R115777 was administered on days 3–14 of the first cycle, and then starting again on day 1 of subsequent cycles, but without administration on days 15–21.
Three patients were accrued at the starting dose level, and in the absence of DLT, another three patients were entered at the next dose level. For safety reasons, the next dose level was not opened until at least three patients were assessable for toxicity in the first cycle. In case only one patient developed DLT (see below), the dose level was expanded with additional patients to a total of six. […] The MTD (recommended dose) was defined as one dose level below the level at which ⩾2 of six patients experienced DLT.
Toxicity was assessed by the National Cancer Institute Version 2.0 common toxicity criteria on a scale graded 0–4 (Available: http://ctep.cancer.gov/reporti ng/ctc.html (accessed: February 27, 2004)). […] Tumours were assessed radiologically before patients were enrolled on the study, and after every even-numbered cycle. […]

[2] = test system: CYP3A4; parameters: method as in Bohets, 1998; conditions: human hepatic microsomal preparations; at in vitro concentrations five-fold higher than the peak concentrations observed in the present study; ref Bohets, 1998; cited from earlier work
[3] = test system: UGT1A; conditions: 2002, cited from earlier work
[4] = test system: ABCB1 (P-glycoprotein); parameters: method as in earlier work; conditions: ref unpublished data, Johnson & Johnson Pharmaceutical Research and Development, cited from earlier work
[5] = Noncompartmental plasma pharmacokinetics of R115777 with/without irinotecan; conditions: for AUC12 h Ratio (R115777 with irinotecan to R115777 alone) / Cmax Ratio (R115777 with irinotecan to R115777 alone): least-squares means, 90% confidence limits in parentheses; for tmax: median
[6] = clinical; conditions: human, plasma, po
[7] = clinical; conditions: human
[8] = Noncompartmental plasma pharmacokinetics of irinotecan and SN-38 with/without R115777
[9] = human, in vivo
[10] = parameters: method as in earlier work; conditions: ref unpublished data, Johnson & Johnson Pharmaceutical Research and Development, cited from earlier work
[11] = human, in vivo, 350 mg
[12] = Intermittent, oral R115777 200–400 mg b.i.d., dose-normalised to 200 mg, (+) Irinotecan 350 mg m^−2, mean±s.d., 12–13 patients
[13] = continuous, relative to monotherapy, not significant
[14] = intermittent regimens, not statistically significant
[15] = Continuous, (+) R115777 200 mg b.i.d. (cycle 2), irinotecan 200–350 mg m^−2, dose-adjusted to 350 mg m^−2, mean±s.d., 11–13 patients
[16] = preclinical studies, ref Gagne et al

For `Cn1cncc1[C@@](N)(c1ccc(Cl)cc1)c1ccc2c(c1)c(-c1cccc(Cl)c1)cc(=O)n2C` [R115777, (R)-6-[amino(4-chlorophenyl)(1-methyl-1H-imidazol-5-yl)methyl]-4-(3-chloro-phenyl)-1-methyl-2(1H)-quinolinone], the “MTD (R115777 dose in the combination)” value ([1]; oral, 14 consecutive days in 21-day cycles, with irinotecan 350 mg m^−2 every 3 weeks) is given as 300 mg b.i.d, the “effect on CYP3A4 activity” value [2] is given as “inhibit CYP3A4 activity” and the “isozyme with a minor role in N-glucuronidation” value ([3]; ref Mannens et al) is given as “UGT1A3”. For the same compound, the “prominent isozyme producing the N-glucuronide” value ([3]; ref Mannens et al) was “UGT1A4”, the “inhibition of P-glycoprotein” value ([4]; at physiologically relevant concentrations) was “does not significantly inhibit” and the ABCB1 substrate ([4]; preliminary data) was “not likely to be a substrate”. For the same compound, the “AUC12 h Ratio (R115777 with irinotecan to R115777 alone)” value ([5]; Continuous) was 101 (68–149) percent, the “Cmax Ratio (R115777 with irinotecan to R115777 alone)” value ([5]; Continuous) was 93 (63–137) percent and the Cmax ([5]; Continuous, oral R115777 200 mg b.i.d., (+) Irinotecan 200–350 mg m^−2, mean±s.d., 11–13 patients) was 735 ± 377 ng/mL. The “AUC12 h Ratio (R115777 with irinotecan to R115777 alone)” value ([5]; Intermittent) was 109 (93–127) percent, the “Cmax Ratio (R115777 with irinotecan to R115777 alone)” value ([5]; Intermittent) was 106 (89–126) percent and the AUC12 h [5, 12] was 3170 ± 1550 ng·h/mL. For the same compound, the Cmax [5, 12] was 663 ± 296 ng/mL, the tmax ([5]; Intermittent, oral R115777 200–400 mg b.i.d., (+) Irinotecan 350 mg m^−2, 12–13 patients) was 2.0 h and the tmax ([5]; Intermittent, oral R115777 200–400 mg b.i.d., (−) Irinotecan, 12–13 patients) was 2.0 h. For the same compound, the “time at which peak plasma concentrations were observed” value ([5]; after oral administration, with or without co-administration of irinotecan) was 2 h, the “decrease in the peak concentration in the combination therapy” value [5, 13] was 7.0% and the “increase in AUC in the combination therapy” value [5, 13] was 1.0%. The “increase in AUC following administration of irinotecan” value [5, 14] was 9.0%, the “increase in peak concentration following administration of irinotecan” value [5, 14] was 6.0% and the tmax [6] was 2.1 h. For the same compound, the AUC(0-t) ([6]; 200 mg) was 3240 ± 1590 ng·h/mL, the Cmax ([6]; 200 mg) was 840 ± 551 ng/mL and the tmax ([6]; 200 mg) was 2 h.
With `CCc1c2c(nc3ccc(O)cc13)-c1cc3c(c(=O)n1C2)COC(=O)[C@]3(O)CC` [SN-38, 7-ethyl-10-hydroxycamptothecin] the half-life ([7]; in vivo) was 13.4 ± 4.44 h, the half-life ([7]; in vivo, 350 mg) was 18.1 ± 13.1 h and the Cmax ([7]; plasma, intravenous) was 41.5 ± 20.1 ng/mL. The AUC(0-t) ([7]; plasma, intravenous, 350 mg) was 326 ± 134 ng·h/mL, the AUC48 h [8, 15] was 569 ± 328 ng·h/mL and the Cmax [8, 15] was 70.2 ± 49.6 ng/mL. For the same compound, the Cmax ([8]; Continuous, (−) R115777 (cycle 1), irinotecan 200–350 mg m^−2, dose-adjusted to 350 mg m^−2, mean±s.d., 11–13 patients) was 63.4 ± 37.4 ng/mL, the AUC48 h ([8]; Intermittent, (+) R115777 200–400 mg b.i.d. (cycle 2), irinotecan 350 mg m^−2, mean±s.d., 13 patients) was 375 ± 146 ng·h/mL and the “isozymes with a minor role in glucuronidation” value [3, 16] was “UGT1A6, UGT1A8, and UGT1A10”. For the same compound, the “major isozymes involved in glucuronidation” value [3, 16] was “UGT1A1, UGT1A7, and UGT1A9”, the “AUCcar Mean diff” value [9] was -26.7 ± 10.1 ng·h/mL and the “AUClac Mean diff” value [9] was -59.7 ± 34.7 ng·h/mL. For the same compound, the “REClac (relative extent of conversion, AUCSN-38/AUCirinotecan × 100%, lactone)” value [9] was 6.91±3.05%, the “REClac Mean diff” value [9] was −0.57±0.50% and the “RECtotal (relative extent of conversion, AUCSN-38/AUCirinotecan × 100%, total)” value [9] was 2.72±1.02%. The “RECtotal Mean diff” value [9] was −0.09±0.13%.
For `CC(=O)O[C@@]12CO[C@@H]1C[C@H](O)[C@@]1(C)C(=O)[C@H](O)C3=C(C)[C@@H](OC(=O)[C@H](O)[C@@H](NC(=O)OC(C)(C)C)c4ccccc4)C[C@@](O)([C@@H](OC(=O)c4ccccc4)[C@H]21)C3(C)C` [docetaxel], the “plasma AUC of docetaxel” value ([10]; continuous R115777 (200 mg b.i.d.), subset of subjects) is listed as “relatively unchanged” and the “effect of R115777 on the systemic exposure to docetaxel” value ([10]; single-dose administration of R115777 (200 or 300 mg)) is listed as “little effect”.
For `CCc1c2c(nc3ccc(OC(=O)N4CCC(N5CCCCC5)CC4)cc13)-c1cc3c(c(=O)n1C2)COC(=O)[C@]3(O)CC` [irinotecan], the Cmax ([7]; in vivo) was 3620 ± 632 ng/mL, the AUC48 h [11] was 20 270±6020 ng h ml^−1 and the “MTD (irinotecan dose in the combination)” value ([1]; given every 3 weeks, with R115777 300 mg b.i.d. for 14 consecutive days) was 350 mg m^−2. The “AUCcar Mean diff” value [9] was -1950 ± 641 ng·h/mL and the “AUClac Mean diff” value [9] was -269 ± 101 ng·h/mL.
